Measured values published in ChEMBL document CHEMBL1201862, “PubChem BioAssay data set” (2004).
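Method: 48-hour compound exposure of cells in 96-well plates, five concentrations, linear interpolation of endpoints. Here, GI50 denotes the concentration required for 50% inhibition of growth.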 Activity calls are given as the source filed them. Cut-off read from the data, not from the text of the source: active = GI50 up to about 1.1 µM and inactive = higher.

What was measured:
Assay in all cases: growth of human tumour cells (NCI), 48 h
[1] = test system: 786-0
[2] = test system: A498
[3] = test system: A549
[4] = test system: ACHN
[5] = test system: BT-549
[6] = test system: CAKI-1
[7] = test system: CCRF-CEM
[8] = test system: COLO 205
[9] = test system: DU-145
[10] = test system: EKVX
[11] = test system: HCC 2998
[12] = test system: HCT-116
[13] = test system: HCT-15
[14] = test system: HOP-62
[15] = test system: HOP-92
[16] = test system: HT-29
[17] = test system: IGROV-1
[18] = test system: K562
[19] = test system: KM12
[20] = test system: LOX IMVI
[21] = test system: M14
[22] = test system: MCF7
[23] = test system: MDA-MB-231
[24] = test system: MDA-MB-435
[25] = test system: MDA-N
[26] = test system: MOLT-4
[27] = test system: Malme-3M
[28] = test system: NCI-H226
[29] = test system: NCI-H23
[30] = test system: NCI-H460
[31] = test system: NCI-H522
[32] = test system: NCI/ADR-RES
[33] = test system: OVCAR-3
[34] = test system: OVCAR-4
[35] = test system: OVCAR-5
[36] = test system: OVCAR-8
[37] = test system: PC-3
[38] = test system: RPMI-8226
[39] = test system: RXF 393
[40] = test system: SF-268
[41] = test system: SF-295
[42] = test system: SF-539
[43] = test system: SK-MEL-28
[44] = test system: SK-MEL-2
[45] = test system: SK-MEL-5
[46] = test system: SK-OV-3
[47] = test system: SN12C
[48] = test system: SNB-19
[49] = test system: SW-620
[50] = test system: T47D
[51] = test system: TK-10
[52] = test system: U-251
[53] = test system: UACC-257
[54] = test system: UACC-62
[55] = test system: UO-31
[56] = test system: HL-60
[57] = test system: Hs-578T
[58] = test system: SR
[59] = test system: SNB-75

Measured: GI50

COc1cc2c(cc1OCCCCN1C(=O)c3cccc4cccc(c34)C1=O)N=C[C@@H]1CCCN1C2=O
inactive: [1] 2.64 µM | [2] 7.66 µM | [3] 5.68 µM | [4] 2.22 µM | [5] 3.52 µM | [6] 2.58 µM | [7] 1.64 µM | [8] 2.72 µM | [9] 4.01 µM | [10] 17.1 µM | [11] 6.97 µM | [12] 3.59 µM | [14] 7.73 µM | [15] 6.18 µM | [16] 5.73 µM | [17] 2.07 µM | [18] 4.15 µM | [19] 3.57 µM | [20] 3.83 µM | [21] 5.56 µM | [22] 1.69 µM | [23] 3.53 µM | [24] 3.83 µM | [25] 2.31 µM | [26] 3.25 µM | [27] 3.72 µM | [28] 8.36 µM | [29] 3.74 µM | [30] 3.96 µM | [31] 1.68 µM | [32] 6.52 µM | [33] 3.4 µM | [34] 3.27 µM | [35] 4.95 µM | [36] 3.11 µM | [37] 5.27 µM | [38] 2.69 µM | [39] 2.09 µM | [40] 4.92 µM | [41] 6.04 µM | [42] 2.55 µM | [43] 11.7 µM | [44] 3.47 µM | [45] 2.01 µM | [46] 9.48 µM | [47] 3.53 µM | [48] 6.17 µM | [49] 4.92 µM | [50] 7.93 µM | [51] 2.47 µM | [52] 3.24 µM | [53] 7.05 µM | [54] 3.47 µM | [55] 1.68 µM
3.99 µM: [13]

O=c1c2cc(S(=O)(=O)O)ccc2nc(COc2ccc(Oc3ccc(Cl)cc3Cl)cc2)n1-c1ccc(Cl)cc1Oc1c(Cl)cccc1Cl
21 µM: [13]
inactive: [1] 24.7 µM | [2] 25.3 µM | [3] 23.7 µM | [4] 25.1 µM | [5] 21.9 µM | [6] 30.3 µM | [7] 30.9 µM | [8] 17.5 µM | [9] 38 µM | [10] 15.6 µM | [12] 24.8 µM | [56] 47.1 µM | [14] 33.7 µM | [15] 15.7 µM | [16] 20 µM | [57] 26.1 µM | [17] 33 µM | [18] 43.2 µM | [19] 35 µM | [20] 17.5 µM | [21] 21.9 µM | [22] 21.2 µM | [24] 25.6 µM | [25] 30.1 µM | [26] 36 µM | [27] 36.5 µM | [28] 20.6 µM | [29] 24.2 µM | [30] 19.5 µM | [31] 20.7 µM | [32] 23.9 µM | [33] 23.7 µM | [34] 29.4 µM | [35] 23.6 µM | [36] 23.3 µM | [37] 36.4 µM | [38] 21.2 µM | [40] 15.3 µM | [41] 21.8 µM | [42] 16.5 µM | [44] 18.6 µM | [45] 17 µM | [46] 25.2 µM | [47] 30.1 µM | [48] 40.9 µM | [58] 34 µM | [49] 23.3 µM | [50] 46.1 µM | [51] 29.4 µM | [52] 18.3 µM | [53] 30.5 µM | [54] 20.1 µM | [55] 18.3 µM

O=C(Sc1c(-c2ccccc2)c(=O)n(-c2ccccc2)c(=S)n1-c1ccccc1)c1ccccc1
60.7 µM: [13]
inactive: [1] > 100 µM | [3] > 100 µM | [4] > 100 µM | [5] 56.1 µM | [6] > 100 µM | [7] 15.8 µM | [8] > 100 µM | [9] > 100 µM | [10] > 100 µM | [12] 56 µM | [56] 33.2 µM | [14] > 100 µM | [15] 32.1 µM | [16] 57.9 µM | [57] 33.7 µM | [17] > 100 µM | [18] 29 µM | [19] > 100 µM | [20] 26.4 µM | [21] 61.1 µM | [22] 51.6 µM | [24] 93.3 µM | [25] 84.5 µM | [26] 19.5 µM | [27] > 100 µM | [28] > 100 µM | [29] > 100 µM | [30] > 100 µM | [31] 36.1 µM | [32] 75 µM | [33] > 100 µM | [34] > 100 µM | [35] > 100 µM | [36] 99.3 µM | [37] > 100 µM | [38] 41.8 µM | [40] > 100 µM | [41] 47.4 µM | [43] > 100 µM | [44] > 100 µM | [45] 33.9 µM | [46] > 100 µM | [47] > 100 µM | [48] > 100 µM | [59] 12.3 µM | [58] 31.3 µM | [49] 28.6 µM | [50] 71.1 µM | [51] > 100 µM | [52] 79.1 µM | [53] > 100 µM | [54] 33.5 µM | [55] 41.6 µM

C=CCOCn1cc(F)c(=O)[nH]c1=O
> 100 µM: [13]
inactive: [1] > 100 µM | [2] > 100 µM | [3] > 100 µM | [4] > 100 µM | [5] > 100 µM | [6] > 100 µM | [7] > 100 µM | [8] > 100 µM | [9] > 100 µM | [10] > 100 µM | [11] > 100 µM | [12] > 100 µM | [56] > 100 µM | [14] > 100 µM | [16] > 100 µM | [57] > 100 µM | [17] > 100 µM | [18] > 100 µM | [19] > 100 µM | [20] > 100 µM | [21] > 100 µM | [22] > 100 µM | [23] > 100 µM | [24] > 100 µM | [25] > 100 µM | [26] > 100 µM | [27] > 100 µM | [28] > 100 µM | [29] > 100 µM | [30] > 100 µM | [31] > 100 µM | [36] > 100 µM | [37] > 100 µM | [38] > 100 µM | [40] > 100 µM | [41] > 100 µM | [42] > 100 µM | [43] > 100 µM | [45] > 100 µM | [46] > 100 µM | [47] > 100 µM | [48] > 100 µM | [59] 31.6 µM | [58] > 100 µM | [49] > 100 µM | [50] > 100 µM | [51] > 100 µM | [53] > 100 µM | [54] > 100 µM | [55] > 100 µM

COC(=O)c1cc(C)ccc1/C=C1\Cc2cc(C)c(C)cc2C1=O
> 100 µM: [13]
inactive: [1] 55.8 µM | [2] 68.9 µM | [3] > 100 µM | [4] > 100 µM | [5] > 100 µM | [6] > 100 µM | [9] > 100 µM | [10] > 100 µM | [11] > 100 µM | [12] > 100 µM | [56] > 100 µM | [14] 39 µM | [15] 36.2 µM | [16] > 100 µM | [57] 38.8 µM | [17] > 100 µM | [18] 89.3 µM | [19] > 100 µM | [20] > 100 µM | [21] > 100 µM | [23] > 100 µM | [25] > 100 µM | [26] 33.1 µM | [27] > 100 µM | [28] > 100 µM | [29] > 100 µM | [30] > 100 µM | [31] > 100 µM | [33] 51.1 µM | [34] > 100 µM | [35] > 100 µM | [36] > 100 µM | [37] > 100 µM | [38] > 100 µM | [39] 50.5 µM | [40] 41.1 µM | [41] 38.7 µM | [42] > 100 µM | [43] > 100 µM | [44] 60.3 µM | [45] > 100 µM | [47] > 100 µM | [48] 29.9 µM | [59] 17.5 µM | [58] > 100 µM | [49] > 100 µM | [50] > 100 µM | [51] > 100 µM | [53] > 100 µM | [54] 27.8 µM | [55] > 100 µM
active: [7] 0.108 µM
